In patent US20130338574A1, “ORAL MEDICINAL COMPOSITION FOR PATIENTS UNDERGOING PERITONEAL DIALYSIS AND METHOD FOR USING SAME” (TOKAI UNIVERSITY EDUCATIONAL SYSTEM, priority 2010, published 2013):

Legend:
[1] = Transfer of pyridoxamine into blood and peritoneal cavity after oral administration to uremic rat models; format: in vivo, Sprague-Dawley male rats; conditions: oral 30 mg/rat/day, 7 days
Description: The uremic rat models were produced using 7-week-old (body weight: 300 g or less) Sprague-Dawley male rats (CLEA Japan, Inc.) by the method described in NPL 27 and NPL 28. More specifically, the above rats were first subjected to 1/3 nephrectomy under anesthesia, and then to 1/2 nephrectomy after a week, thereby producing 5/6 nephrectomy rats (rats with kidney subtotal excision). These rats were allowed to freely take a standard diet for experimental rats (containing 1.06% calcium, 0.9% phosphate, and 21% protein; CE2: CLEA Japan, Inc.) and tap water until the eve of slaughter.
The kidney subtotal excision rats with chronic renal failure (uremic rat models) produced in the above manner were separated into two groups (each group: n=3). Distilled water for injection (Otsuka Pharmaceutical Co., Ltd.; here and below) was orally administered compulsorily to Group 1 (control group) once a day, while a pyridoxamine salt aqueous solution prepared by dissolving 30 mg of pyridoxamine dihydrochloride (Sigma; here and below) in 2 mL of distilled water for injection was orally administered compulsorily to Group 2 (pyridoxamine salt orally administered group) once a day. On the 6th day of administration, after distilled water for injection and the pyridoxamine salt aqueous solution were orally administered, respectively, to Groups 1 and 2, 20 ml of a peritoneal dialysis fluid (pH 4.5 to 5.5) (trade name: Dianeal (registered trademark) PD-4 4.25; Baxter Limited) was injected intraperitoneally to both groups.
Subsequently, on the 7th day of administration, as normal, distilled water for injection was orally administered compulsorily to Group 1, and the pyridoxamine salt aqueous solution was orally administered compulsorily to Group 2. […]
When the quantitative analysis of pyridoxamine and dicarbonyl compounds (3-deoxyglucosone) in the samples was performed by liquid chromatography (HPLC), the above frozen test samples (serum and intraperitoneal fluid) were used after natural thawing at room temperature.
First, 50 μL of each test sample (serum and intraperitoneal fluid) was taken in a test tube. […] Subsequently, the mixture was subjected to centrifugation at 12,000 rpm at 4° C. for 10 minutes to precipitate proteins, and the supernatant was then collected for use as a sample for pyridoxamine quantitative analysis by HPLC.
The quantitative analysis of pyridoxamine was carried out under the HPLC conditions described in Experimental Example 1 (2). The quantitative analysis was performed using a standard calibration curve previously prepared by measurement under the above HPLC conditions using standard solutions of pyridoxamine of known concentrations.

[2] = system: pentosidine in the peritoneal tissue; test: Peritoneum protective effect: pentosidine in peritoneal tissue of uremic rat models (Experimental Example 4); format: in vivo, rats; conditions: oral 30 mg/rat/day, 7 days
Description: The protective effect of oral administration of a pyridoxamine salt on the deterioration of the peritoneum caused by peritoneal dialysis was evaluated. More specifically, uremic rat models were subjected to intraperitoneal administration of a peritoneal dialysis fluid together with oral administration of a pyridoxamine salt, and the concentration of pentosidine in the peritoneal tissue, which was an indicator of tissue degeneration caused by enhanced carbonyl stress, was measured. Pentosidine is an advanced glycation/lipoxidation end product (AGE). Kidney subtotal excision rats were produced in the same manner as in Experimental Example 2. […] The sample for pentosidine measurement prepared in the above manner was subjected to HPLC under the following conditions, and pentosidine contained in the peritoneum was quantitatively analyzed. The quantitative analysis was performed using a standard calibration curve previously prepared by measurement under the following HPLC conditions using standard solutions of synthetic pentosidine of known concentrations. […] Stationary phase: C18 column (Puresil, 4.6×250 mm, 5 μm; Nihon Waters K.K.) Flow rate: 0.8 mL/min Detection: Fluorescence detection (excitation wavelength: 335 nm/absorption wavelength: 385 nm) (fluorescence detector: Shimadzu Corporation) Sample volume: 20 μL

[3] = within an hour after last administration, Dianeal PD-4 4.25 i.p. on 6th day

Pyridoxamine amount in intraperitoneal fluid ([1]; amount in 20.8 ml of collected intraperitoneal fluid): 321 µg
pyridoxamine concentration in the intraperitoneal cavity, Group 2 relative to Group 1 (control) [1]: ≥ 65 times
Pyridoxamine concentration in intraperitoneal fluid [1, 3]: 14.7 µg/mL
Pyridoxamine concentration in serum [1, 3]: 13.8 µg/mL
SMILES: Cc1ncc(CO)c(CN)c1O.Cl.Cl [pyridoxamine dihydrochloride, Pyridoxamine dihydrochloride]
pentosidine concentration in the peritoneum tissue compared with control group ([2]; acid peritoneal dialysis fluid): significantly lower
Pentosidine concentration in peritoneal tissue ([2]; per mg of peritoneum (wet mass), acid peritoneal dialysis fluid 20 ml i.p., control group 0.065): 0.022 pmol/mg
